Results reported in ChEMBL document CHEMBL4049443, “Discovery of 2-[[2-Ethyl-6-[4-[2-(3-hydroxyazetidin-1-yl)-2-oxoethyl]piperazin-1-yl]-8-methylimidazo[1,2-a]pyridin-3-yl]methylamino]-4-(4-fluorophenyl)thiazole-5-carbonitrile (GLPG1690), a First-in-Class Autotaxin Inhibitor Undergoing Clinical Evaluation for the Treatment of Idiopathic Pulmonary …” (J Med Chem, 2017).

Columns and labels:
[1] = target: Autotaxin (Homo sapiens, UniProt Q13822); experiment: Inhibition of human ATX using LPC (16:0) as substrate after 30 mins by horseradish peroxidase/choline oxidase coupled enzyme based spectrophotometric analysis
[2] = target: Cytochrome P450 3A4 (Homo sapiens, UniProt P08684); experiment: Time-dependent inhibition of human liver microsomes CYP3A4; format: ADME
Chain of Cytochrome P450 3A4 (P08684 whole entry): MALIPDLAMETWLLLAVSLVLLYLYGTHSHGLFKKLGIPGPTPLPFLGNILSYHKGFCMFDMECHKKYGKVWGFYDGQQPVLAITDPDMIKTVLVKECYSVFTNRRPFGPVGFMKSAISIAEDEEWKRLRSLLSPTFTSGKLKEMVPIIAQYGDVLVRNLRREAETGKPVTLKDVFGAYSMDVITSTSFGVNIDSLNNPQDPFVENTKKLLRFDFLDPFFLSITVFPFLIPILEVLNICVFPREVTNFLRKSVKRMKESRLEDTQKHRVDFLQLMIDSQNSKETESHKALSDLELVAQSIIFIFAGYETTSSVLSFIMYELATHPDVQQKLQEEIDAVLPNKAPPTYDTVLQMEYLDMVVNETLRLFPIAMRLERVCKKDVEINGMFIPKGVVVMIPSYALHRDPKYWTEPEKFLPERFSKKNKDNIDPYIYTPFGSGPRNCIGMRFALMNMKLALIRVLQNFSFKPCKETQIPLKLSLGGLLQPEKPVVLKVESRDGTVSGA

IC50 [1]: 0.274 µM | TDI [2]: Active
Compound: CCc1nc2ccc(N3CCN(CC(=O)N4CC(O)C4)CC3)cn2c1N(C)c1nc(-c2ccc(F)cc2)cs1
